Values of other authors, collected in patent US20130230609A1, “ANTIMICROBIAL/PRESERVATIVE COMPOSITIONS COMPRISING BOTANICALS” (priority 2012, published 2013).

Substance	water solubility (in words)
zinc picolinate	moderately water soluble
zinc glycerate	moderately water soluble
